According to US5662604A, “Monitoring method of renal lesions without clinical signs” (Asahi Kasei Kogyo Kabushiki Kaisha, priority 1995, dated 1997):
Several values for one entry are separate records, joined by “and”; a condition that tells them apart may be missing. Equal values may be shown once. Where a name gives a salt, the structure may show the parent alone.

What was measured:
urinary excretion of NAG = conditions: intravenous; IHP and PHP patients; Calcif. Tissue Int., 45(6):375 (1989); cited from earlier work
urinary NAG [1] = test: Urinary NAG response to intravenous h-PTH(1-34) in healthy male volunteers (Referential Example); type: in vivo
Experimental: Method: Fourteen (14) healthy male volunteers were used.
Prior to 60 minutes for intravenous administration of h-PTH(1-34) 100 units, complete excretion of urine was performed. 200 ml of drinking water was given to the individual volunteers and urine was collected immediately before administration of […]. Then, h-PTH(1-34) 100 units were administered intravenously and 200 ml of drinking water was given to the volunteers, and after 60 minutes urine was again collected. Each of urinary NAG and creatinine in 0.5 ml of urine was measured, and an increased ratio of urinary excreted NAG was calculated. NAG value was corrected by creatinine value.
For an assay of NAG, NAG Test Shionogi (Shionogi Pharm. Co., assay method: mcp colorimetry) was used, and for that of creatinine, creatinine-HR (Wako Pure, Chem. Co., assay method: alkali picric acid method) was used. Table 1 illustrates the various parameters, i.e. NAG, AER and serum Cr, in pre- or post-administration of PTH for healthy male volunteers.
NAG value corrected by creatinine (unit: U/g Cr) is calculated by the equation;
Urinary NAG (Unit:U/l).div.urinary creatinine (unit:mg/dl)×100.
The normal range of urinary NAG value after administration of PTH in healthy volunteers is defined according to the results obtained hereinabove as follows. The normal range is calculated by mean ±2 S.D.

urinary NAG [2] = test: Urinary NAG response to intravenous h-PTH(1-34) in patients with diabetes mellitus having AER below 15 μg/min (Example 2); type: in vivo
Experimental: The predetermined dose of h-PTH(1-34), for example, is administered intravenously in the patients to carry out the monitoring method of the present invention. The patients are diabetes mellitus patients with an AER value below 15 μg/min., showing latent abnormal renal function without detecting manifestation of abnormal renal function. The h-PTH (1-34) is, for example, administered to these patients. Urinary excreted NAG of the patients can be assayed by hydrolysing a substrate NAG, i.e. sodium-cresol-sulfophthaleinyl-N-acetyl-β-D-glucosaminide (MCP-NAG), by NAG, coloring the thus generated m-cresol purple under alkaline condition by adding sodium carbonate and measuring colorimetrically 580 nm. Urinary NAG value is expressed, for example, as U/l (NAG active unit in one liter of urine). Urinary excreted NAG of the patients before administration of PTH and that after administration of PTH are measured, and an increased ratio of urinary excreted NAG value in the post-administration of PTH against the urinary excreted NAG value in the pre-administration of PTH is calculated.
Urine of the pre-administration is collected by excretion after accumulating the urine at a constant time interval, preferably 60 min.±10 min., previously after excreting urine in the pre-administration of PTH. Collecting urine is preferably performed immediately before administration of PTH. Urine of the post-administrationis collected after accumulating the urine under the same condition in the pre-administration, i.e. after a constant time interval of 60 min.±10 min., because of performing excretion (collection) of urine immediately before administration of PTH. For effective accumulation of urine, a suitable amount of drinking water, for example 100-300 ml, may be given to the patients. Urinary NAG value can be measured using a specimen of 0.05-1 ml. Since a suitable volume of water is given to the patients, a correction of the NAG value is needed. Accordingly, a parameter of urine volume and concentration, for example another component such as urinary creatinine concentration (expressed as mg/dl) is measured, and NAG value per creatinine value is obtained. A corrected value of NAG for creatinine (Unit: U/g Cr) is calculated by;
Urinary NAG (U/l ).div.urinary creatinine (mg/dl)×100.
Method: Eighteen (18) patients with diabetes mellitus having AER within normal range (below 15 μg/min.) were used.
Sixty minutes prior to intravenous administration of 100 units of h-PTH(1-34), complete excretion of urine was performed. 200 ml of drinking water were given to the individual volunteers and urine was collected immediately before administration of h-PTH(1-34). Then 100 units of h-PTH(1-34) were administered intravenously and 200 ml of drinking water were given for intake, and after 60 minutes urine was collected. Each of urinary NAG and creatinine in 0.5 ml of urine was measured to calculate the increased ratio of urinary excreted NAG. The NAG value was corrected by creatinine value.
Tables 2 and 3 show the various parameters in pre- and post-administration of PTH for the patients of diabetes mellitus showing the value with the normal range of AER (below 15 μg/min.).

[3] = system: membrane component of rat renal cortex; test: Biological activity (cAMP generation, radioimmunoassay) by parallel test against bovine-PTH (1-84) standard; type: biochemical
From the text: Biological activity of teriparatide acetate unit can be determined by a parallel test wherein reacting a membrane component of rat renal cortex with teriparatide acetate and assaying generated cAMP by radioimmunoassay. The specific activity of teriparatide acetate is 3,300 units/mg by a parallel test using the standard substance of bovine-PTH (1-84).

[4] = mean of 14 healthy male volunteers, 100 units i.v., 60 min
[5] = mean of 18 diabetic patients, 100 units i.v., 60 min
[6] = of 18 diabetic patients, 100 units i.v.

**Q.** Which “Urinary excretion of NAG (in words)” value (urinary excretion of NAG) does the source give for “h-PTH(1-34): h-PTH(1-34) having molecular weight about 4,400 with 34 imino acids sequence” here?
**A.** increased urinary excretion of NAG in only IHP

**Q.** What about the “Urinary excretion of NAG (in words)” value (urinary NAG [1]; administration of human-PTH (1-34) in healthy volunteers) of the same molecule?
**A.** increased urinary excretion of NAG

**Q.** What about the “Normal range of increased ratio of urinary NAG in post-administration to pre-administration” value (urinary NAG [1]; healthy volunteers, mean ±2 S.D.) of the same molecule?
**A.** 2.4-4.7

**Q.** And the “Urinary NAG post-” value (urinary NAG [1]; individual healthy male volunteers, 100 units h-PTH(1-34) i.v., urine 60 min after)?
**A.** 5.9 U/gCr and 8.6 U/gCr and 10.7 U/gCr and 5.7 U/gCr and 7.3 U/gCr and 11.0 U/gCr and 14.7 U/gCr and 17.0 U/gCr and 10.0 U/gCr and 19.3 U/gCr and 6.4 U/gCr and 8.3 U/gCr and 9.8 U/gCr

**Q.** What about the “Urinary NAG changes” value (urinary NAG [1]; individual healthy male volunteers, post minus pre, 100 units h-PTH(1-34) i.v., 60 min) of the same molecule?
**A.** 4.3 U/gcr and 6.4 U/gcr and 7.4 U/gcr and 4.4 U/gcr and 4.9 U/gcr and 8.1 U/gcr and 9.7 U/gcr and 11.5 U/gcr and 7.3 U/gcr and 15.0 U/gcr and 5.8 U/gcr and 6.3 U/gcr and 6.2 U/gcr

**Q.** And the “Urinary NAG changes in ratio” value (urinary NAG [1]; individual healthy male volunteers, post/pre, 100 units h-PTH(1-34) i.v., 60 min)?
**A.** 3.8 and 3.9 and 3.3 and 4.4 and 3.1 and 3.7 and 2.9 and 3.6 and 4.1 and 3.4 and 2.8 and 2.6

**Q.** What about the “Urinary NAG changes in ratio (increased ratio post-/pre-administration), mean” value (urinary NAG [1]; [4]) of the same molecule?
**A.** 3.5 and 3.5±0.6

**Q.** And the “Urinary NAG changes, mean” value (urinary NAG [1]; [4])?
**A.** 7.3 U/gcr

**Q.** What about the “Urinary NAG post-, mean” value (urinary NAG [1]; [4]) of the same molecule?
**A.** 10.3 U/gCr and 10.3±4.1 U/gCr

**Q.** And the “Urinary NAG post-” value (urinary NAG [2]; individual diabetic patients, AER below 15 μg/min, 100 units h-PTH(1-34) i.v., urine 60 min after)?
**A.** 7.3 U/gCr and 7.8 U/gCr and 15.6 U/gCr and 7.5 U/gCr and 11.0 U/gCr and 12.2 U/gCr and 6.8 U/gCr and 17.5 U/gCr and 10.1 U/gCr and 15.3 U/gCr and 4.5 U/gCr and 23.9 U/gCr and 13.4 U/gCr and 15.9 U/gCr and 9.7 U/gCr and 6.7 U/gCr and 16.7 U/gCr

**Q.** What about the “Urinary NAG changes” value (urinary NAG [2]; individual diabetic patients, post minus pre, 100 units h-PTH(1-34) i.v., 60 min) of the same molecule?
**A.** 3.4 U/gcr and 3.9 U/gcr and 7.9 U/gcr and 3.7 U/gcr and 7.1 U/gcr and 4.9 U/gcr and 7.5 U/gcr and 5.8 U/gcr and 11.7 U/gcr and 2.2 U/gcr and 12.7 U/gcr and 8.1 U/gcr and 9.3 U/gcr and 5.1 U/gcr

**Q.** And the “Urinary NAG changes in ratio” value (urinary NAG [2]; individual diabetic patients, post/pre, 100 units h-PTH(1-34) i.v., 60 min)?
**A.** 1.9 and 2.0 and 2.8 and 1.7 and 2.2 and 1.8 and 2.4 and 4.3 and 1.6 and 2.1 and 2.5 and 2.3 and 3.4

**Q.** What about the “Urinary NAG changes in ratio, mean” value (urinary NAG [2]; [5]) of the same molecule?
**A.** 2.3

**Q.** What about the “Urinary NAG changes, mean” value (urinary NAG [2]; [5]) of the same molecule?
**A.** 6.5 U/gcr

**Q.** And the “Urinary NAG post-, mean” value (urinary NAG [2]; [5])?
**A.** 11.8 U/gCr

**Q.** What about the “Number of patients with normal increased ratio of urinary excreted NAG (2.4-4.7)” value (urinary NAG [2]; [6]) of the same molecule?
**A.** 6 subjects

**Q.** What about the “Number of patients with significantly decreased increased ratio of urinary NAG (2.3), diagnosed as renal lesion without clinical symptoms of nephropathy” value (urinary NAG [2]; [6]) of the same molecule?
**A.** 12 cases

**Q.** Which “Specific activity of the bulk used for the injection” value ([3]; Example 1, Teriparatide hydrochloride) does the source give for `CC[C@H](C)[C@H](NC(=O)[C@H](CCC(=O)O)NC(=O)[C@H](CO)NC(=O)[C@@H](NC(=O)[C@@H](N)CO)C(C)C)C(=O)N[C@@H](CCC(N)=O)C(=O)N[C@@H](CC(C)C)C(=O)N[C@@H](CCSC)C(=O)N[C@@H](Cc1cnc[nH]1)C(=O)N[C@@H](CC(N)=O)C(=O)N[C@@H](CC(C)C)C(=O)NCC(=O)N[C@@H](CCCCN)C(=O)N[C@@H](Cc1cnc[nH]1)C(=O)N[C@@H](CC(C)C)C(=O)N[C@@H](CC(N)=O)C(=O)N[C@@H](CO)C(=O)N[C@@H](CCSC)C(=O)N[C@@H](CCC(=O)O)C(=O)N[C@@H](CCCN=C(N)N)C(=O)N[C@H](C(=O)N[C@@H](CCC(=O)O)C(=O)N[C@@H](Cc1c[nH]c2ccccc12)C(=O)N[C@@H](CC(C)C)C(=O)N[C@@H](CCCN=C(N)N)C(=O)N[C@@H](CCCCN)C(=O)N[C@@H](CCCCN)C(=O)N[C@@H](CC(C)C)C(=O)N[C@@H](CCC(N)=O)C(=O)N[C@@H](CC(=O)O)C(=O)N[C@H](C(=O)N[C@@H](Cc1cnc[nH]1)C(=O)N[C@@H](CC(N)=O)C(=O)N[C@@H](Cc1ccccc1)C(=O)O)C(C)C)C(C)C` [Teriparatide hydrochloride] here?
**A.** 3,333 teriparatide acetate units/mg

**Q.** With teriparatide acetate as the molecule, how does the Specific activity ([3]; parallel test using standard substance of bovine-PTH (1-84)) read?
**A.** 3,300 units/mg
